For eight compounds, IC50 results are on record in BindingDB's records for doi:10.1111/cbdd.12458 (Pontificia Universidad Catolica De Chile, 2015).

Assay [1] deals with T1, Amine oxidase [flavin-containing] A (Rattus norvegicus, UniProt P21396).
T1 sequence (P21396 whole entry): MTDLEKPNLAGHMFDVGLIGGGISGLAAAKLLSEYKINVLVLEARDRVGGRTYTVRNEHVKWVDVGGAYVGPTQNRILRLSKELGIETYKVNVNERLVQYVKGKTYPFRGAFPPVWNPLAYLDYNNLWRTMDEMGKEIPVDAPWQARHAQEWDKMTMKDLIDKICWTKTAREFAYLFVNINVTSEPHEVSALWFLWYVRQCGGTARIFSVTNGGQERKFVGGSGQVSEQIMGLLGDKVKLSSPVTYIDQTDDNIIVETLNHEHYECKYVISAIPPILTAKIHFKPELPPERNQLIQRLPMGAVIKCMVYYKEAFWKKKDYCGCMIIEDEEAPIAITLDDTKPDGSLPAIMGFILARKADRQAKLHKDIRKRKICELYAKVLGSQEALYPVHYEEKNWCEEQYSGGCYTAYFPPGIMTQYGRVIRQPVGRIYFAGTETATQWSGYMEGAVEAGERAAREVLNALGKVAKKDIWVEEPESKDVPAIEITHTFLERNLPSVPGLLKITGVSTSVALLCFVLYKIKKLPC
Nature of the assay: Monoamine Oxidase Inhibition Assay. As for the experimental part: (§1) Briefly, a crude rat brain mitochondrial suspension (male Sprague Dawley rats weighing 180 220 g, killed by decapitation) was used as protein source. Serotonin(5-HT, 100 µM) and 4-dimethylaminophenethylamine (DMAPEA, 5 µM) were used as selective substrates for MAO-A and MAO-B, respectively. The reaction mixtures were analyzed with a Merck-Hitachi HPLC (Tokyo, Japan), employing a C18 reverse phase column (Lichrospher 250 9 4.6 mm, 5 µm) and an amperometric detector (Merck Recipe L3500A). Tetrahydrofuran and acetonitrile (Merck) were used as eluents.

For assay [2], the target named is T2, Amine oxidase [flavin-containing] B (Rattus norvegicus, UniProt P19643).
T2 sequence (P19643 whole entry): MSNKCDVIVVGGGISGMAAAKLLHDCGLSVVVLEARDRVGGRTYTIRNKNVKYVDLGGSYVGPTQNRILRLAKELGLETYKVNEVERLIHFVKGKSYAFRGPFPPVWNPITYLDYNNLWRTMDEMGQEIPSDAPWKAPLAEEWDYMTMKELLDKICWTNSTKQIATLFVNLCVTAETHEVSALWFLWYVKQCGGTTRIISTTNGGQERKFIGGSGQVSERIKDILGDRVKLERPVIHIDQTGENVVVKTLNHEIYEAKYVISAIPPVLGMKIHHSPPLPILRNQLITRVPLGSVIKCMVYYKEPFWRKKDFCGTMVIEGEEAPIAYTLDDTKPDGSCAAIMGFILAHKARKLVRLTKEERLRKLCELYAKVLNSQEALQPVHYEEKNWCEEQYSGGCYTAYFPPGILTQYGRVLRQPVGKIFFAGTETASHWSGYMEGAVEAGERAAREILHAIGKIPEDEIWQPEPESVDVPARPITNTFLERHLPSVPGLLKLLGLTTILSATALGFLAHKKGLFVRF
Nature of the assay: Monoamine Oxidase Inhibition Assay. As for the experimental part: as §1

A word on the IC50: it is the concentration needed to halve the response being measured. A lower IC50 goes with higher potency.

For the compound `COc1ccc(O)c(C(=O)/C=C/c2cccc(OC)c2OC)c1` [(E)-3-(2,3-Dimethoxyphenyl)-1-(2-hydroxy-5-methoxyphenyl)prop-2-en-1-one (3g)], the IC50 in assay [1] was over 100 µM; in assay [2], 6.8 µM.

As to `COc1ccc(OC)c(/C=C/C(=O)c2c(O)cccc2OC)c1` [(E)-3-(2,5-Dimethoxyphenyl)-1-(2-hydroxy-6-methoxyphenyl)prop-2-en-1-one (3a)], the figures for the IC50 in assay [1] and in assay [2] were over 100 µM and 10.9 µM, respectively.

Consider `COc1ccc(O)c(C(=O)/C=C/c2cc(OC)c(Br)cc2OC)c1` [(E)-3-(4-Bromo-2,5-dimethoxyphenyl)-1-(2-hydroxy-5-methoxyphenyl)prop-2-en-1-one (3h)], for which the half-maximal inhibitory concentration (IC50) is over 100 µM in assay [1] and 2.8 µM in assay [2].

On to `COc1cc(/C=C/C(=O)c2c(O)cccc2OC)c(OC)cc1Br` [(E)-3-(4-Bromo-2,5-dimethoxyphenyl)-1-(2-hydroxy-6-methoxyphenyl)prop-2-en-1-one (3d)], for which the IC50 is over 100 µM in assay [1] and 6.1 µM in assay [2].

Turning to `COc1ccc2c(c1)C(=O)/C(=C/c1cccc(OC)c1OC)O2` [(Z)-2-(2,3-Dimethoxybenzylidene)-5-methoxybenzofuran-3(2H)-one (4g)], the IC50 in assay [1] was over 100 µM; in assay [2], 11.6 µM.

With `COc1ccc(OC)c(/C=C2\Oc3cccc(OC)c3C2=O)c1` [(Z)-2-(2,5-Dimethoxybenzylidene)-4-methoxybenzofuran-3(2H)-one (4a)], the values for the IC50 in assay [1] and in assay [2] were over 100 µM and 17.8 µM, respectively.

Consider `COc1cc(/C=C2\Oc3cccc(OC)c3C2=O)c(OC)cc1Br` [(Z)-2-(4-Bromo-2,5-dimethoxybenzylidene)-4-methoxybenzofuran-3(2H)-one (4d)], for which the concentration for half-maximal inhibition (IC50) in assay [1] is over 100 µM; in assay [2], 26.3 µM.

As for `COc1ccc2c(c1)C(=O)/C(=C/c1cc(OC)c(Br)cc1OC)O2` [(Z)-2-(4-Bromo-2,5-dimethoxybenzylidene)-5-methoxybenzofuran-3(2H)-one (4h)], the results for the concentration for half-maximal inhibition (IC50) in assay [1] and in assay [2] were over 100 µM and 13.5 µM, respectively.
